PubChem BioAssay (NCI)
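Cells were grown in 96-well plates and exposed to each compound for 48 hours at five concentrations; endpoints were interpolated linearly between bracketing concentrations, or set to the highest concentration if not reached. TGI denotes the concentration required for complete inhibition of growth.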

What was measured:
Assay in all cases: DTP human tumour cell line panel, 48 h
[1] = tested on: SW-620 colon
[2] = tested on: 786-0 renal
[3] = tested on: SN12C renal
[4] = tested on: NCI-H226 lung
[5] = tested on: M19-MEL melanoma
[6] = tested on: NCI-H23 lung
[7] = tested on: K-562 leukemia
[8] = tested on: KM12 colon
[9] = tested on: OVCAR-8 ovarian
[10] = tested on: SK-MEL-5 melanoma
[11] = tested on: HCT-116 colon
[12] = tested on: HOP-62 NSCLC
[13] = tested on: HOP-18 NSCLC
[14] = tested on: CCRF-CEM leukemia
[15] = tested on: MOLT-4 leukemia
[16] = tested on: HT29 colon
[17] = tested on: SNB-78 CNS
[18] = tested on: OVCAR-3 ovarian
[19] = tested on: A498 renal
[20] = tested on: SR leukemia
[21] = tested on: U251 CNS
[22] = tested on: SF-268 CNS
[23] = tested on: LOX IMVI melanoma
[24] = tested on: SNB-75 CNS
[25] = tested on: DMS 114 small cell lung
[26] = tested on: NCI-H460 lung
[27] = tested on: DLD-1 colon
[28] = tested on: SNB-19 CNS
[29] = tested on: HCT-15 colon
[30] = tested on: UACC-62 melanoma
[31] = tested on: HL-60(TB) leukemia
[32] = tested on: SF-295 CNS
[33] = tested on: IGROV1 ovarian
[34] = tested on: XF 498 CNS
[35] = tested on: UO-31 renal
[36] = tested on: MALME-3M melanoma
[37] = tested on: EKVX NSCLC
[38] = tested on: KM20L2 colon
[39] = tested on: TK-10 renal
[40] = tested on: CAKI-1 renal
[41] = tested on: OVCAR-5 ovarian
[42] = tested on: HCC-2998 colon
[43] = tested on: DMS 273 small cell lung
[44] = tested on: ACHN renal
[45] = tested on: UACC-257 melanoma
[46] = tested on: SF-539 CNS
[47] = tested on: HOP-92 NSCLC
[48] = tested on: A549 NSCLC
[49] = tested on: RXF 393 renal
[50] = tested on: SK-MEL-28 melanoma
[51] = tested on: COLO 205 colon
[52] = tested on: SK-OV-3 ovarian
[53] = tested on: NCI-H522 lung
[54] = tested on: LXFL 529 NSCLC
[55] = tested on: SK-MEL-2 melanoma
[56] = tested on: M14 melanoma
[57] = tested on: OVCAR-4 ovarian
[58] = tested on: RXF-631 renal
[59] = tested on: RPMI-8226 leukemia

`CN1CCN=C1c1nnn(-c2ccc([N+](=O)[O-])cc2)c1-c1ccccc1` showed a TGI [1] greater than 100 µM, a TGI [2] greater than 100 µM and a TGI [3] greater than 100 µM. It also gave a TGI [4] greater than 100 µM, a TGI [5] greater than 100 µM and a TGI [6] greater than 100 µM. It also gave a TGI [7] greater than 100 µM, a TGI [8] greater than 100 µM and a TGI [9] greater than 100 µM. It also gave a TGI [10] greater than 100 µM, a TGI [11] greater than 100 µM and a TGI [12] greater than 100 µM. It also gave a TGI [13] greater than 100 µM, a TGI [14] of 59 µM and a TGI [15] greater than 100 µM. The TGI [16] was greater than 100 µM, the TGI [17] was greater than 100 µM and the TGI [18] was greater than 100 µM. It also gave a TGI [19] greater than 100 µM, a TGI [20] greater than 100 µM and a TGI [21] greater than 100 µM. The TGI [22] was greater than 100 µM, the TGI [23] was greater than 100 µM and the TGI [24] was greater than 100 µM. For the same compound, the TGI [25] was greater than 100 µM, the TGI [26] was greater than 100 µM and the TGI [27] was greater than 100 µM. It also gave a TGI [28] greater than 100 µM, a TGI [29] greater than 100 µM and a TGI [30] greater than 100 µM. The TGI [31] was 61.4 µM, the TGI [32] was greater than 100 µM and the TGI [33] was greater than 100 µM. The TGI [34] was greater than 100 µM, the TGI [35] was greater than 100 µM and the TGI [36] was greater than 100 µM. The TGI [37] was greater than 100 µM, the TGI [38] was greater than 100 µM and the TGI [39] was greater than 100 µM. The TGI [40] was greater than 100 µM, the TGI [41] was greater than 100 µM and the TGI [42] was greater than 100 µM. It also gave a TGI [43] greater than 100 µM, a TGI [44] greater than 100 µM and a TGI [45] greater than 100 µM. For the same compound, the TGI [46] was greater than 100 µM, the TGI [47] was 94.5 µM and the TGI [48] was greater than 100 µM. The TGI [49] was greater than 100 µM, the TGI [50] was greater than 100 µM and the TGI [51] was greater than 100 µM. For the same compound, the TGI [52] was greater than 100 µM, the TGI [53] was greater than 100 µM and the TGI [54] was greater than 100 µM. The TGI [55] was greater than 100 µM, the TGI [56] was greater than 100 µM and the TGI [57] was greater than 100 µM.
`CCOC(=O)[C@@]12C(C)=CC(=O)O[C@]1(C)C1C(=O)NC(=O)C12` (some centres not stated) showed a TGI [1] greater than 100 µM, a TGI [2] greater than 100 µM and a TGI [4] greater than 100 µM. The TGI [6] was greater than 100 µM, the TGI [7] was greater than 100 µM and the TGI [8] was greater than 100 µM. It also gave a TGI [9] greater than 100 µM, a TGI [10] greater than 100 µM and a TGI [11] greater than 100 µM. For the same compound, the TGI [12] was greater than 100 µM, the TGI [13] was greater than 100 µM and the TGI [14] was greater than 100 µM. For the same compound, the TGI [15] was greater than 100 µM, the TGI [16] was greater than 100 µM and the TGI [17] was greater than 100 µM. The TGI [18] was greater than 100 µM, the TGI [19] was greater than 100 µM and the TGI [21] was greater than 100 µM. The TGI [23] was greater than 100 µM, the TGI [24] was greater than 100 µM and the TGI [25] was greater than 100 µM. The TGI [26] was greater than 100 µM, the TGI [27] was greater than 100 µM and the TGI [28] was greater than 100 µM. The TGI [30] was greater than 100 µM, the TGI [31] was greater than 100 µM and the TGI [32] was greater than 100 µM. For the same compound, the TGI [58] was greater than 100 µM, the TGI [33] was greater than 100 µM and the TGI [35] was greater than 100 µM. The TGI [36] was greater than 100 µM, the TGI [37] was greater than 100 µM and the TGI [38] was greater than 100 µM. For the same compound, the TGI [39] was greater than 100 µM, the TGI [42] was greater than 100 µM and the TGI [43] was greater than 100 µM. The TGI [44] was greater than 100 µM, the TGI [45] was greater than 100 µM and the TGI [46] was greater than 100 µM. It also gave a TGI [47] greater than 100 µM, a TGI [48] greater than 100 µM and a TGI [49] greater than 100 µM. It also gave a TGI [50] greater than 100 µM, a TGI [51] greater than 100 µM and a TGI [52] greater than 100 µM. The TGI [54] was greater than 100 µM, the TGI [55] was greater than 100 µM and the TGI [56] was greater than 100 µM. It also gave a TGI [59] greater than 100 µM and a TGI [57] greater than 100 µM.
